{"source": "patent US9150837B2", "about": "“Polyethylene glycolated superoxide dismutase mimetics” (Galera Therapeutics, LLC, priority 2004, dated 2015)", "tested_on": "carrageenan-induced hyperalgesia", "conditions": "0.1 mg/kg, s.c.", "experimental": "Male Sprague-Dawley rats (175-200 g, Harlan Sprague Dawley, Indianapolis, Ind., USA) were housed and cared for in accordance with the guidelines of the Institutional Animal Care and Use Committee and in accordance with NIH guidelines on laboratory animal welfare. Rats received a subplantar injection of carrageenan (0.1 ml of a 1% suspension in 0.85% saline) into the right hind paw. A hyperalgesic response to heat was determined in the animals by Hargreaves' method (Hargreaves et al., 1988). Rats were individually confined and acclimated to Plexiglas chambers for 30 min. A mobile unit consisting of a high intensity projector bulb was positioned to deliver a thermal stimulus directly to an individual hind paw from beneath the chamber. The withdrawal latency period of injected and contralateral paws was determined to the nearest 0.1 sec with an electronic clock circuit and thermocouple. […] Each point will represent the change in withdrawal latency compared with control measurements taken prior to carrageenan injection.", "data": [{"compound": "CN1CC[C@]23c4c5ccc(O)c4O[C@H]2[C@@H](O)C=C[C@H]3[C@H]1C5", "note": "[morphine]", "values": [{"measurement": "inhibition of hyperalgesia", "value": "modest inhibition of hyperalgesia"}]}]}
